Results published in paper PMC8151276, “An Integrated Approach toward NanoBRET Tracers for Analysis of GPCR Ligand Engagement” (Molecules, 2021).

Experiments:
Format in all cases: binding
[1] = biological target: T1, AGTR1 (Homo sapiens, UniProt P30556); experiment: NanoBRET screen HiBiT-AGTR1 in HEK293
T1 construct: purchased Promega (in-house HiBiT-GPCR construct library, NanoBRET)
T1 sequence (P30556 1-359): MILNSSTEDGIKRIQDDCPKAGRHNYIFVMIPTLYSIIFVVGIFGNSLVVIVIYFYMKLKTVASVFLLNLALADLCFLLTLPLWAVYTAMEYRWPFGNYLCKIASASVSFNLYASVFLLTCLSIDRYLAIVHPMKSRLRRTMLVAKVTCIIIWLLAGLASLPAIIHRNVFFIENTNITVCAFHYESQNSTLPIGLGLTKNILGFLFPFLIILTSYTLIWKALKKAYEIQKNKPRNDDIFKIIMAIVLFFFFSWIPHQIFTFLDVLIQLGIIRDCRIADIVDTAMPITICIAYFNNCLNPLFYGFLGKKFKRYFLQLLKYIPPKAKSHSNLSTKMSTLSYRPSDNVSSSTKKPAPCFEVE
Description: (§1) Each tracer candidate was screened across the entire library of HiBiT-GPCR constructs using NanoBRET as the detection modality. As depicted in Figure 4A, the specificity of interactions was evaluated through decrease in BRET due to competitive displacement of a bound tracer by excess parental compound. Each tracer was analyzed for binding to each HiBiT-GPCR fusion in the absence and in the presence of competing parental compound. Briefly, HEK293 cells were transfected with HiBiT-GPCR constructs diluted into promoterless DNA to reduce expression and maximize translocation to the cell surface. Each tracer candidate was then screened at concentrations of 1 μM and 0.1 μM across cells expressing these fusions. Cells were treated for 1.5 h with tracer either alone or in the presence of 20 μM competing parental compound (i.e., control). BRET was measured upon addition of purified LgBiT and subsequent complementation with HiBiT genetically fused to a GPCR. The specificity of interactions was assessed through a decrease in BRET signal due to competitive displacement of the bound tracer. To further gauge the robustness of these interactions, the fold response over the control (i.e., BRETtracer/BRETcontrol) was calculated. We chose a 1.5-fold response, which translates to ≥7-fold signal over noise as the minimal threshold required to score an interaction as positive. […]. Below we highlight the screening results obtained for our exemplary fluorescent tracers based on Clozapine, Amitriptyline and AZD1283.
(§2) HiBiT-GPCR DNA constructs were diluted in 10 mM Tris pH 8 to a final concentration of 0.01 μg/μL, arrayed in 96-well plates and stored at −20 °C. For transfection, HEK293 cells were suspended in Opti-MEM (without phenol red) supplemented with 2% fetal bovine serum (Seradigm) and 100 units/mL penicillin–streptomycin (Gibco) at a final concentration of 220,000 cells/mL and dispensed into white 96-well plates at 90 μL/well. Subsequent transfections and screens were carried using an Agilent Bravo Automated Liquid Handling Platform. First, the 96-well HiBiT DNA arrays were diluted 25-fold in Opti-MEM (without serum or phenol red) to a final concentration of 0.0004 μg/μL and 20 μL of the diluted DNAs were transferred into new 96-well plates. Next, promoterless carrier DNA (1 μg/μL) was diluted 25-fold (0.04 μg/μL) and then dispensed into the diluted arrays at 20 μL/well. Following brief mixing, Viafect transfection reagent (Promega) diluted 16-fold into Opti-MEM was dispensed into the plates at 40 μL/well. After mixing by pipetting, plates were incubated for 10 min on the pipetting station deck. The DNA-transfection reagent complexes were then added to plates containing cells. To facilitate the screen, 10 μL of DNA-transfection reagent complexes were added in duplicates to the top 4 and bottom 4 rows, resulting in two identical 48-well arrays per plate. Plates with transfected cells were incubated for 18–20 h at 37 °C/5% CO2. A screen of each tracer across the entire library using two different concentrations requires duplicate plates of transfected cells. Depending on the number of tracers being screened, transfections can be scaled up using the same ratios. The next day, for each tracer, four 20× screening solutions in tracer dilution buffer (Promega) were prepared: two duplicates at final concentration of 20 μM and two duplicates at a final concentration of 2 μM. A competing unmodified compound was added to one of each duplicate at a final concentration of 400 μM. The four resulting solutions were diluted 4-fold in Opti-MEM without serum or phenol red to generate 5× solutions (5 µM and 0.5 µM tracer +/− 100 μM competing compound). To screen the library, a BioTek MultiFlo FX liquid dispenser was used to dispense 22.5 µL of tracer solution to the top 4 rows and 22.5 µL tracer + competing compound solution to the 4 bottom rows. Plates were briefly mixed on an orbital shaker and incubated for 1.5 h at room temperature. […]

[2] = biological target: T2, FZD5 (Homo sapiens, UniProt Q13467); experiment: NanoBRET screen HiBiT-FZD5 in HEK293
T2 construct: purchased Promega (in-house HiBiT-GPCR construct library, NanoBRET)
Description: as §1, §2

[3] = biological target: T3, F2R (Homo sapiens, UniProt P25116); experiment: NanoBRET screen HiBiT-F2R in HEK293
T3 construct: purchased Promega (in-house HiBiT-GPCR construct library, NanoBRET)
T3 sequence (P25116 22-425): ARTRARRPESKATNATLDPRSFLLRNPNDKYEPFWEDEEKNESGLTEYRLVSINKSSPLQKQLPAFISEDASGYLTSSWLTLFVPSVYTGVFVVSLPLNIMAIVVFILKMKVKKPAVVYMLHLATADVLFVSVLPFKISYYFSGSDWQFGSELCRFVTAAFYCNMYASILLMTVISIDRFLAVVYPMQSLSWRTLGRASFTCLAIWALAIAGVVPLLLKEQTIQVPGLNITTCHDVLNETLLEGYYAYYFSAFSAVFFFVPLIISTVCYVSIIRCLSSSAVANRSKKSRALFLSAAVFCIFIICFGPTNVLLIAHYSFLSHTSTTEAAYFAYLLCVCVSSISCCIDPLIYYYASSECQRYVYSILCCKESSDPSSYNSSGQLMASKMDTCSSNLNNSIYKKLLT
Description: as §1, §2

[4] = biological target: T4, TACR3 (Homo sapiens, UniProt P29371); experiment: NanoBRET screen HiBiT-TACR3 in HEK293
T4 construct: purchased Promega (in-house HiBiT-GPCR construct library, NanoBRET)
T4 sequence (P29371 1-465): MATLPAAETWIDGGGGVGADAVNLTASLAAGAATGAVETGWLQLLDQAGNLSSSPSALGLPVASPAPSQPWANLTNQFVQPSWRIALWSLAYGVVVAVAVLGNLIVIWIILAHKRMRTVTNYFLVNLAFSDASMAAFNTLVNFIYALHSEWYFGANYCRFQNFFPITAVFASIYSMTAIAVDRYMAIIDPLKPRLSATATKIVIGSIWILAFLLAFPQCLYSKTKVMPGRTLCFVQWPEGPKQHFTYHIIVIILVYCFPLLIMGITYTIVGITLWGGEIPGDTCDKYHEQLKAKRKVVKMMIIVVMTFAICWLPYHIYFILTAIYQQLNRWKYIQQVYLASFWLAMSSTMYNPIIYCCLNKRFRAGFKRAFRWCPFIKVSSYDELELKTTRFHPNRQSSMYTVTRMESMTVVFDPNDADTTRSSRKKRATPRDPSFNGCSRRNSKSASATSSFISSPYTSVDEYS
Description: as §1, §2

T2 sequence (Q13467 27-585): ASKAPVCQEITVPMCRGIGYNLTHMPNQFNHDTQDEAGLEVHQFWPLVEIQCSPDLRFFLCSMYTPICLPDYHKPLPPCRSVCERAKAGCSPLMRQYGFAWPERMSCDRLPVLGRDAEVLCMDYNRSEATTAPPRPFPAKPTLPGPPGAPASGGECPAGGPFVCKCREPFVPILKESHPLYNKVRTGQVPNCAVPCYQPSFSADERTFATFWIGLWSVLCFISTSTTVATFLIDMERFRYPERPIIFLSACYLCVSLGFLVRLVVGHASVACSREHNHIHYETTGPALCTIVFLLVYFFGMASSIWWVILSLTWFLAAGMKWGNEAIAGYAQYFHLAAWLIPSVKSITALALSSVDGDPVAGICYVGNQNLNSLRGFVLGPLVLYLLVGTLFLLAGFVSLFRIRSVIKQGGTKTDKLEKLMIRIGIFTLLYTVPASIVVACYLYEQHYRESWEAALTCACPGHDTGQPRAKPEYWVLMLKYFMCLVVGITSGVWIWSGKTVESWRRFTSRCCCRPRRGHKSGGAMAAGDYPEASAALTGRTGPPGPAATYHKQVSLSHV

SMILES | NanoBRET Fold Response ([1]; AGTR1, tracer 0.1μM) | NanoBRET Fold Response ([1]; AGTR1, tracer 1μM) | NanoBRET Fold Response ([2]; FZD5, tracer 0.1μM) | NanoBRET Fold Response ([2]; FZD5, tracer 1μM) | NanoBRET Fold Response ([3]; F2R, tracer 0.1μM) | NanoBRET Fold Response ([3]; F2R, tracer 1μM) | NanoBRET Fold Response ([4]; TACR3, tracer 0.1μM) | NanoBRET Fold Response ([4]; TACR3, tracer 1μM) | also measured
O=C(CCc1ccc2n1[B-](F)(F)[N+]1=C(c3ccc[nH]3)C=CC1=C2)NCc1ccc(C(=O)NCCOCCC(=O)N[C@@H]2CC[C@@]3(O)[C@H]4Cc5ccc(O)c6c5[C@@]3(CCN4CC3CC3)[C@H]2O6)cc1 [Naltrexone-3-NB590] | 1.07 | 0.93 | 0.99 | 0.98 | 1.02 | 0.99 | 1.19 | 0.93 | 
CCCn1c(=O)c2[nH]c(-c3ccc(OCC(=O)NCCNC(=O)CCOCCNC(=O)c4ccc(CNC(=O)CCc5ccc6n5[B-](F)(F)[N+]5=C(c7ccc[nH]7)C=CC5=C6)cc4)cc3)nc2n(CCC)c1=O [XAC-3-NB590] | 1.24 | 1.19 | 1.13 | 0.95 | 1.20 | 0.80 | 1.06 | 1.01 | 
CC(C)N(CC[C@H](c1ccccc1)c1cc(CCNC(=O)c2ccc(CNC(=O)CCc3ccc4n3[B-](F)(F)[N+]3=C(c5ccc[nH]5)C=CC3=C4)cc2)ccc1O)C(C)C [Tolterodine-BZ-NB590] | 1.06 | 1.00 | 1.12 | 1.03 | 1.09 | 0.85 | 0.98 | 1.06 | 
COc1ccc2[nH]c(-c3ccc(CNC(=O)CCOCCOCCOCCOCCNC(=O)CCc4ccc5n4[B-](F)(F)[N+]4=C(c6ccc[nH]6)C=CC4=C5)cc3)c(CCNC(C)=O)c2n1 [AzomelatoninICO9-2-NB590] |  |  |  |  |  |  |  |  | NanoBRET Fold Response ([1]; 0.1μM tracer): 0.91; NanoBRET Fold Response ([1]; 1μM tracer): 0.94; NanoBRET Fold Response ([2]; 0.1μM tracer): 0.97; NanoBRET Fold Response ([2]; 1μM tracer): 0.93; NanoBRET Fold Response ([3]; 0.1μM tracer): 1.38; NanoBRET Fold Response ([3]; 1μM tracer): 0.84; NanoBRET Fold Response ([4]; 0.1μM tracer): 1.23; NanoBRET Fold Response ([4]; 1μM tracer): 1.00
CN1CCN(C2=Nc3cc(Cl)ccc3N(CC(=O)NCCOCCOCCOCCOCCNC(=O)CCc3ccc4n3[B-](F)(F)[N+]3=C(c5ccc[nH]5)C=CC3=C4)c3ccccc32)CC1 [Clozapine-c-2-NB590] |  |  |  |  |  |  |  |  | NanoBRET Fold Response ([1]; AGTR1, 0.1μM tracer): 0.98; NanoBRET Fold Response ([1]; AGTR1, 1μM tracer): 0.93; NanoBRET Fold Response ([2]; FZD5, 0.1μM tracer): 1.00; NanoBRET Fold Response ([2]; FZD5, 1μM tracer): 1.04; NanoBRET Fold Response ([3]; F2R, 0.1μM tracer): 0.99; NanoBRET Fold Response ([3]; F2R, 1μM tracer): 0.99; NanoBRET Fold Response ([4]; TACR3, 0.1μM tracer): 1.00; NanoBRET Fold Response ([4]; TACR3, 1μM tracer): 1.00
COc1ccccc1N1CCN(CCCCN2C(=O)c3ccc(CNC(=O)CCOCCNC(=O)c4ccc(CNC(=O)CCc5ccc6n5[B-](F)(F)[N+]5=C(c7ccc[nH]7)C=CC5=C6)cc4)cc3C2=O)CC1 [NAN-190-3-NB590] | 0.92 | 1.04 | 0.97 | 1.00 | 0.97 | 1.11 | 0.97 | 0.96 | 
Cc1nc2n(c(=O)c1CCN1CCC(c3noc4cc(F)ccc34)CC1)CCCC2OC(=O)NCCOCCOCCOCCOCCNC(=O)CCc1ccc2n1[B-](F)(F)[N+]1=C(c3ccc[nH]3)C=CC1=C2 (centres unmarked) [Risperidone-2-NB590] | 0.99 | 0.98 | 0.95 | 0.99 | 0.97 | 0.78 | 1.04 | 1.10 | 
O=C(CCOCCOCCOCCOCCNC(=O)CCc1ccc2n1[B-](F)(F)[N+]1=C(c3ccc[nH]3)C=CC1=C2)NCCCN1CCN(C2=Nc3ccccc3Oc3ccc(Cl)cc32)CC1 [Loxapine-a-2-NB590] | 0.96 | 1.08 | 1.01 | 0.89 | 0.97 | 1.05 | 1.08 | 1.11 | 
COc1ccccc1N1CCN(CCCCN2C(=O)c3ccc(CNC(=O)CCOCCOCCOCCOCCNC(=O)CCc4ccc5n4[B-](F)(F)[N+]4=C(c6ccc[nH]6)C=CC4=C5)cc3C2=O)CC1 [NAN-190-2-NB590] | 1.04 | 1.11 | 0.97 | 1.00 | 1.07 | 0.93 |  |  | 
CC(C)N(CC[C@H](c1ccccc1)c1cc(CCNC(=O)CCOCCOCCOCCOCCNC(=O)CCc2ccc3n2[B-](F)(F)[N+]2=C(c4ccc[nH]4)C=CC2=C3)ccc1O)C(C)C [Tolterodine-2-NB590] | 1.12 | 1.00 | 0.87 | 1.07 | 1.20 | 1.03 | 1.11 | 1.08 | 
CN(CCC=C1c2ccccc2CCc2ccccc21)C(=O)CCOCCOCCOCCOCCNC(=O)CCc1ccc2n1[B-](F)(F)[N+]1=C(c3ccc[nH]3)C=CC1=C2 [Amitriptyline-e-2-NB590] |  |  |  |  |  |  |  |  | NanoBRET Fold Response ([1]; tracer at 1μM): 1.02; NanoBRET Fold Response ([2]; tracer at 1μM): 0.98
